Where two headings read alike, the source gives them in different places. Where a SMILES comes first, the peptide text is derived from it. [ ]: non-standard residue; d: D form. ξ: configuration not given here. Oic = O=C(O)[C@@H]1C[C@@H]2CCCC[C@@H]2N1; Oic(3aξ,7aξ) = O=C(O)[C@@H]1CC2CCCCC2N1; Tic = O=C(O)[C@@H]1Cc2ccccc2CN1
Tests used:
[1] = test system: K. pneumoniae BAMC 07-18; type: cell-based, Klebsiella pneumoniae
From the text: Table 3 In vitro minimum inhibitory concentration (MIC) and minimum bactericide concentration (MBC) activity against K. pneumonia and P. aeruginosa. | column: K. pneumoniae BAMC 07-18 / MBC (μg/mL)/(μM)

[2] = test system: P. aeruginosa PAO1; type: cell-based, Pseudomonas aeruginosa
From the text: Table 3 In vitro minimum inhibitory concentration (MIC) and minimum bactericide concentration (MBC) activity against K. pneumonia and P. aeruginosa. | column: P. aeruginosa PAO1 / MBC (µg/mL)/(μM)

[3] = type: physicochemical
Procedure: Peptide solutions were prepared by dissolving approximately 2 mg of AMPs 70, 74, 75, 79, or 80 in 1.0 mL of phosphate buffer. […] For the LPS liposome studies 350 μL of stock LPS solution was mixed with 50 μL of stock peptide solution. CD spectroscopy is a sensitive technique, so it is commonly used to monitor conformational changes in peptides and proteins. […] All CD spectra were obtained by acquiring 8 scans using a 0.1 mm cylindrical quartz cell with a spectral range of 260 to 195 nm (at wavelengths below 195 nm the HTV exceeded 400, and therefore data collection was terminated at 195 nm) and a scanning rate of 20 nm/min. Acquisition parameters were bandwidth 1 nm, data pitch 0.2 nm, response time 2.0 s, and 5 mdeg sensitivity. Spectra were collected at room temperature (298 K). Contributions from LPS were eliminated by subtracting from the corresponding AMP-LPS solutions. All analyses of CD spectra were conducted after smoothing with a means-movement function.

[4] = test system: K. pneumoniae BAMC 07-18; conditions: for in vitro inhibitory activity: against K. pneumoniae
[5] = test system: P. aeruginosa PAO1; conditions: for in vitro inhibitory activity: against P. aeruginosa
[6] = K. pneumoniae BAMC 07-18, light face value
[7] = P. aeruginosa PAO1, light face value

Row | Compound | MBC ([1]; BAMC 07-18) | MBC [1, 6] [mg/L] | MBC [2, 7] [mg/L] | MBC ([2]; PAO1) | solubility in phosphate buffer at approximately 2 mg in 1.0 mL [3] | MIC ([4]; BAMC 07-18) | MIC [4, 6] [mg/L] | MIC [5, 7] [mg/L] | MIC ([5]; PAO1) | in vitro inhibitory activity [5] [µg/mL] | in vitro inhibitory activity [4] [µg/mL]
1 | CC(C)C[C@H](NC(=O)[C@@H](N)CCCCN)C(=O)N1Cc2ccccc2C[C@H]1C(=O)N1[C@H](C(=O)N[C@@H](CCCCN)C(=O)N2Cc3ccccc3C[C@H]2C(=O)N2[C@H](C(=O)N[C@@H](Cc3ccccc3)C(=O)NCC(=O)N3Cc4ccccc4C[C@H]3C(=O)N3[C@H](C(=O)N[C@@H](CCCCN)C(=O)N4Cc5ccccc5C[C@H]4C(=O)N4[C@H](C(=O)N[C@@H](Cc5ccccc5)C(=O)NCC(=O)N5Cc6ccccc6C[C@H]5C(=O)N5[C@H](C(=O)N[C@@H](CCCCN)C(=O)N6Cc7ccccc7C[C@H]6C(=O)N6[C@H](C(=O)N[C@@H](CCCCN)C(=O)N[C@@H](CCCCN)C(=O)N[C@@H](CCCCN)C(=O)N[C@@H](CCCCN)C(N)=O)C[C@@H]7CCCC[C@@H]76)C[C@@H]6CCCC[C@@H]65)C[C@@H]5CCCC[C@@H]54)C[C@@H]4CCCC[C@@H]43)C[C@@H]3CCCC[C@@H]32)C[C@@H]2CCCC[C@@H]21 [AMP 77] (H-KL[Tic][Oic]K[Tic][Oic]FG[Tic][Oic]K[Tic][Oic]FG[Tic][Oic]K[Tic][Oic]KKKK-NH2) | 29.2 µM | 100 | 50 | 14.6 µM | solubility issues | 14.6 µM | 50 | 50 | 14.6 µM | 50 | –
2 | CC(C)C[C@H](NC(=O)[C@@H](N)CCCCN)C(=O)N1Cc2ccccc2C[C@H]1C(=O)N1C2CCCCC2C[C@H]1C(=O)N[C@@H](CCCCN)C(=O)NCC(=O)N1Cc2ccccc2C[C@H]1C(=O)N1C2CCCCC2C[C@H]1C(=O)N[C@@H](Cc1ccccc1)C(=O)N1Cc2ccccc2C[C@H]1C(=O)N1C2CCCCC2C[C@H]1C(=O)N[C@@H](CCCCN)C(=O)NCC(=O)N1Cc2ccccc2C[C@H]1C(=O)N1C2CCCCC2C[C@H]1C(=O)N[C@@H](Cc1ccccc1)C(=O)N1Cc2ccccc2C[C@H]1C(=O)N1C2CCCCC2C[C@H]1C(=O)N[C@@H](CCCCN)C(=O)NCC(=O)N1Cc2ccccc2C[C@H]1C(=O)N1C2CCCCC2C[C@H]1C(=O)N[C@@H](CCCCN)C(=O)N[C@@H](CCCCN)C(=O)N[C@@H](CCCCN)C(=O)N[C@@H](CCCCN)C(N)=O (stereo partly shown) [AMP 78] (H-KL[Tic][Oic(3aξ,7aξ)]KG[Tic][Oic(3aξ,7aξ)]F[Tic][Oic(3aξ,7aξ)]KG[Tic][Oic(3aξ,7aξ)]F[Tic][Oic(3aξ,7aξ)]KG[Tic][Oic(3aξ,7aξ)]KKKK-NH2) | 28.6 µM | 100 | 50 | 14.3 µM | solubility issues | 14.3 µM | 50 | 50 | 14.3 µM | 50 | 50
3 | CC(C)C[C@H](NC(=O)[C@@H](N)CCCCN)C(=O)N1Cc2ccccc2C[C@H]1C(=O)N1[C@H](C(=O)N[C@@H](CCCCN)C(=O)N2Cc3ccccc3C[C@H]2C(=O)N2[C@H](C(=O)N[C@@H](Cc3ccccc3)C(=O)N3Cc4ccccc4C[C@H]3C(=O)N3[C@H](C(=O)N[C@@H](CCCCN)C(=O)N4Cc5ccccc5C[C@H]4C(=O)N4[C@H](C(=O)N[C@@H](Cc5ccccc5)C(=O)N5Cc6ccccc6C[C@H]5C(=O)N5[C@H](C(=O)N[C@@H](CCCCN)C(=O)N6Cc7ccccc7C[C@H]6C(=O)N6[C@H](C(=O)N[C@@H](CCCCN)C(=O)N[C@@H](CCCNC(=N)N)C(N)=O)C[C@@H]7CCCC[C@@H]76)C[C@@H]6CCCC[C@@H]65)C[C@@H]5CCCC[C@@H]54)C[C@@H]4CCCC[C@@H]43)C[C@@H]3CCCC[C@@H]32)C[C@@H]2CCCC[C@@H]21 [AMP 22] (H-KL[Tic][Oic]K[Tic][Oic]F[Tic][Oic]K[Tic][Oic]F[Tic][Oic]K[Tic][Oic]KR-NH2) | >100 mg/L | – | – | >100 mg/L | solubility issues | >100 mg/L | – | – | >100 mg/L | ≥ 100 | ≥ 100

Source: PMC4295349, “Synthetic Antimicrobial Peptides Exhibit Two Different Binding Mechanisms to the Lipopolysaccharides Isolated from Pseudomonas aeruginosa and Klebsiella pneumoniae” (International Journal of Medicinal Chemistry, 2014)
